Experimental data published in article PMC11606974, “Stereoselective chemical N-glycoconjugation of amines via CO2 incorporation” (Nature Communications, 2024).
pIC50: −log10 of the molar value.

Key:
HEK-293T cells = experiment: Cell viability assay (CCK-8, 72 h); details: Homo sapiens, read-out: HEK-293T IC50 (growth inhibition)
SK-MEL-28 cells = experiment: Cell viability assay (CCK-8, 72 h); details: Homo sapiens, SK-MEL-28, 72 h, read-out: SK-MEL-28 IC50 (growth inhibition)
SNU-5 cells = experiment: Cell viability assay (CCK-8, 72 h); details: Homo sapiens, SNU-5, 72 h, read-out: SNU-5 IC50 (growth inhibition)
[1] = target: ALK (kinase domain, 1068–1410) (Homo sapiens, UniProt Q9UM73); experiment: Enzymatic inhibition assay, ATP hydrolysis (Kinase-Glo luminescent kit)
[2] = Pharmacokinetic analysis of crizotinib glucosides after oral gavage, plasma LC/MS/MS; format: in vivo, male C57 mice
cancer cells = system: cancer cells; set-up: method as in PMID 25184545; details: compared with deglycoBLM (6); cited from earlier work
[3] = mouse, plasma, oral GA95 91.6 mg/kg, male C57 mice, analyte Glycolcrizotinib

Sequence of ALK (kinase domain, 1068–1410) (Q9UM73 1068-1410): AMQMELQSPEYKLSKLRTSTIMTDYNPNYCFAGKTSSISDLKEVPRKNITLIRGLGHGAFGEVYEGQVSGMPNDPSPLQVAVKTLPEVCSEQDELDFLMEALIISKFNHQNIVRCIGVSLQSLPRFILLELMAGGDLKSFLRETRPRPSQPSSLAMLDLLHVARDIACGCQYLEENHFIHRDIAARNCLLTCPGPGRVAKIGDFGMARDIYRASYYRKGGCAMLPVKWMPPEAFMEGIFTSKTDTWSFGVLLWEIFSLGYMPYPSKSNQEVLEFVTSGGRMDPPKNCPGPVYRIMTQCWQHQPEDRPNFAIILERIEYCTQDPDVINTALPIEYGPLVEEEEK

SMILES	pIC50 (HEK-293T cells)	pIC50 (SK-MEL-28 cells)	pIC50 (SNU-5 cells)	pIC50 [1]	half-life ([2]; mouse, plasma, oral GA95 91.6 mg/kg, male C57 mice, analyte GA95) [min]	AUC(0-inf) [2, 3] [ng·h/mL]	AUC(0-t) [2, 3] [ng·h/mL]	Cmax [2, 3] [ng/mL]	MRT [2, 3] [min]	Tmax [2, 3] [min]	plasma concentration of crizotinib after oral application of the glucoside ([2]; oral GA95, male C57 mice, compared with the crizotinib group)	cytotoxic activity (cancer cells)
C[C@@H](Oc1cc(-c2cnn(C3CCNCC3)c2)cnc1N)c1c(Cl)ccc(F)c1Cl [Crizotinib, reference compound]	5.22	5.22	7.82	–	–	–	–	–	–	–	–	–
CC(=O)OC[C@H]1O[C@@H](OC(=O)N2CCC(n3cc(-c4cnc(N)c(O[C@H](C)c5c(Cl)ccc(F)c5Cl)c4)cn3)CC2)[C@H](OC(C)=O)[C@@H](OC(C)=O)[C@@H]1OC(C)=O [GA89]	5.30	5.30	7.35	5.96	–	–	–	–	–	–	–	–
C[C@@H](Oc1cc(-c2cnn(C3CCN(C(=O)O[C@@H]4O[C@H](CO)[C@@H](O)[C@H](O)[C@H]4O)CC3)c2)cnc1N)c1c(Cl)ccc(F)c1Cl [GA95]	4.60	4.60	7.66	6.52	43.6	42.6	37.6	33.6	64.8	15	quickly increased to the similar level as the crizotinib group	–
Cc1c(N)nc([C@H](CC(N)=O)NC[C@H](N)C(N)=O)nc1C(=O)N[C@H](C(=O)N[C@H](C)[C@@H](O)[C@H](C)C(=O)N[C@H](C(=O)NCCc1nc(-c2nc(C(=O)NCCCNCCCCNC(=O)OC3O[C@@H](CO)[C@@H](O)[C@H](O)[C@@H]3O[C@H]3O[C@H](CO)[C@@H](O)[C@H](OC(N)=O)[C@@H]3O)cs2)cs1)[C@@H](C)O)[C@@H](O)c1c[nH]cn1 (stereo partly shown) [compound 5]	–	–	–	–	–	–	–	–	–	–	–	significantly more potent cytotoxic activity than deglycoBLM (6)
